Experimental findings from paper PMC2824011 (Analytical biochemistry, 2009) are described below.

Assay [1] deals with T1, Golgi α-mannosidase II (dGMII) (Drosophila melanogaster, UniProt Q24451).
T1 sequence (Q24451 76-1108): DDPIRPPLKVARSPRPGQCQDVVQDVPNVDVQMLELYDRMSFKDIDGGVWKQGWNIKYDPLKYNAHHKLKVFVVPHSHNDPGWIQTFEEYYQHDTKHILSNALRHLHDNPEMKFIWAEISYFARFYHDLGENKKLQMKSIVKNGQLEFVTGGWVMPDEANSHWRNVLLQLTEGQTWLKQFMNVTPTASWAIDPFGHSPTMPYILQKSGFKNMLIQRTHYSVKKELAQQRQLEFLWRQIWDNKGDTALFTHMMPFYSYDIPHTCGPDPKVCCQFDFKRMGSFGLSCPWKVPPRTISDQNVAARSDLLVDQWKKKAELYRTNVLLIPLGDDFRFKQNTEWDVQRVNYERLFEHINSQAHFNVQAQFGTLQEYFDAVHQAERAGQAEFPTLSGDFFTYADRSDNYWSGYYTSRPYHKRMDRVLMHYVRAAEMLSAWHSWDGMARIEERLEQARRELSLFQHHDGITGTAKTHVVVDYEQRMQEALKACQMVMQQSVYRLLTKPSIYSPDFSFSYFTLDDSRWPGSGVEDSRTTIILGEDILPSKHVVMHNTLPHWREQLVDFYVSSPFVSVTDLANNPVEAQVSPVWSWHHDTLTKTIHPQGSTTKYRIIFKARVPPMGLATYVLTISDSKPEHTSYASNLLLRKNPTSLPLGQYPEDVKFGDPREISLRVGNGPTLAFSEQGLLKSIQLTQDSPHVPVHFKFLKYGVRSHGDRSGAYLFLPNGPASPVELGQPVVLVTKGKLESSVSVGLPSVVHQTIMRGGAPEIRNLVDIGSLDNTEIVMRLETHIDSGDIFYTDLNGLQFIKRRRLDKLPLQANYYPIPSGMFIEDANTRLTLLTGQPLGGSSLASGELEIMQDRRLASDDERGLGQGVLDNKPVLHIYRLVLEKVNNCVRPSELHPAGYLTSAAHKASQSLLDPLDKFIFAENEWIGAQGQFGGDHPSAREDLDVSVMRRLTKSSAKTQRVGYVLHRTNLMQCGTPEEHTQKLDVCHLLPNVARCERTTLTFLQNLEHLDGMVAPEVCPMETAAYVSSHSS
The assay is described as follows: continuous fluorometric enzyme assay with Res-Man substrate, pH […]. In kind it is biochemical.

For assay [2], the target named is T2, human lysosomal mannosidase (HLM) (Homo sapiens, UniProt O00754).
T2 sequence (O00754 50-1011): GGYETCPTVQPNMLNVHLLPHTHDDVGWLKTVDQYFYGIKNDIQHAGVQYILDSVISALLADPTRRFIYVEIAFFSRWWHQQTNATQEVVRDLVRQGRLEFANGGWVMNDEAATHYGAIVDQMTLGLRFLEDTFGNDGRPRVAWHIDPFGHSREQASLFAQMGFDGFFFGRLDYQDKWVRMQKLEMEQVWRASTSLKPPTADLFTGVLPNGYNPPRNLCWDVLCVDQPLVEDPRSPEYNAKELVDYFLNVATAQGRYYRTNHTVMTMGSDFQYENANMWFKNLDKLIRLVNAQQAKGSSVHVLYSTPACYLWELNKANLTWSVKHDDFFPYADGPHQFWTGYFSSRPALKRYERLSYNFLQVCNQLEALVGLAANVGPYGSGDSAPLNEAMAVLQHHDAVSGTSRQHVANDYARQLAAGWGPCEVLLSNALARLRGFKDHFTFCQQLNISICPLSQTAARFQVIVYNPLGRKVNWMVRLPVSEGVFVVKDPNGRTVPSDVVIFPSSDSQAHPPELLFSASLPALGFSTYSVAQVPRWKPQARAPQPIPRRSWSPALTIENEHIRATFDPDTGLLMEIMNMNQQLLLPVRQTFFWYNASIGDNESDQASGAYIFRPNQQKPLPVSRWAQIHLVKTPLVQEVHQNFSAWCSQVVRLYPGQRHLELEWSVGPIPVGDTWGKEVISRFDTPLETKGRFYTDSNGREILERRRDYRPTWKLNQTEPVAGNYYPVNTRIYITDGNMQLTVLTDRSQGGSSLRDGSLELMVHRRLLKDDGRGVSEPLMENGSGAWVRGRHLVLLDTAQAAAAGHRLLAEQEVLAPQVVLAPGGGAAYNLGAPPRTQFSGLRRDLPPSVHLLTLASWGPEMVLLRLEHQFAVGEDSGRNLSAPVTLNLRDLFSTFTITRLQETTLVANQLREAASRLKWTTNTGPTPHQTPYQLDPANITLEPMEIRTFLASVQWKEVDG
The assay is described as follows: continuous fluorometric turnover assay of purified enzyme, pH […]. Type of assay: biochemical.

The term Ki denotes the dissociation constant of the complex between target and ligand, obtained from inhibition or displacement. High values mean a looser hold on the target, low ones a stronger hold on the target. Compound `O[C@H]1[C@H]2[C@H](O)CCCN2C[C@H]1O` [swainsonine] registered a Ki in assay [1] of 0.0447 µM.

`O=c1ccc2nc3ccc(O[C@H]4O[C@H](CO)[C@@H](O)[C@H](O)[C@@H]4O)cc3oc-2c1` [Res-Man, resorufin α-D-mannopyranoside]: the “continuous fluorometric turnover assay of purified enzyme, pH 6.0” value in assay [2] is reported as “recombinant human lysosomal mannosidase (HLM) (◊) using the substrate resorufin-α-D-mannopyranoside (Res-Man)”.
